Experimental data reported in patent publication US4316022A, “Benzo-as-triazine derivatives” (priority 1979, dated 1982).
Where two headings read alike, the source gives them in different places.

Legend:
in vivo = settings: mouse, po
Procedure: The toxicity of the new compounds according to the invention was determined on mice after oral administration. The chemical names of the reference compounds are as follows: […]

narcosis = narcosis potentiating effect on mice, method of Kaergaard; format: in vivo; settings: for ED50: Mus musculus, read-out: ED50 (narcosis potentiating effect)
Procedure: The narcosis potentiating effect was determined on mice by the method of Kaergaard (Arch. Int. Pharmacodyn. 2, 170/1967/).

acetic acid writhing = experiment: analgesic effect, acetic acid writhing test on mice; format: in vivo; settings: for ED50: Mus musculus, read-out: ED50 (analgesic effect); for Therapeutical index (analgesic effect): writhing test
Procedure: The analgesic effect of the new compounds according to the invention was determined on mice by the acetic acid writhing test.

[1] = tested on: carrageenin-provoked paw oedema; experiment: antiphlogistic (oedema-inhibiting) effect, carrageenin paw oedema on rats; format: in vivo; settings: for ED30: Rattus norvegicus, read-out: ED30 (antiphlogistic effect); for Therapeutical index (antiphlogistic effect): carrageenin paw oedema
Procedure: The antiphlogistic (oedema-inhibiting) effect was tested on rats. 0.1 ml of a 1% carrageenin solution were injected into the plantar region of one of the hind paws. The volume of the paw was measured just before and 3 hours after the introduction of the oedema-provoking agent by a mercury plethysmometer.

[2] = mice, oral, acetic acid given 1 h after treatment, writhings counted within 5 minutes
[3] = rats, dosage inhibiting inflammation by 30%, 3 hours after carrageenin

Row | SMILES | LD50 (in vivo) | Therapeutical index (narcosis potentiating effect) (narcosis; mice, method of Kaergaard) | ED50 (narcosis; mice, method of Kaergaard) | ED50 (acetic acid writhing; [2]) | Therapeutical index (analgesic effect) (acetic acid writhing; mice, oral) | ED30 [1, 3] | Therapeutical index (antiphlogistic effect) ([1]; rats) | also measured
1 | CCCc1c(O)n2c3nncn3c3ccccc3n2c1=O [Example 11, 1-oxo-3-hydroxy-2-n-propyl-pyrazolo[1,2-a]-s-triazolo-[3,4-c]benzo-as-triazine] | 2000 mg/kg |  |  |  |  |  |  | 
2 | CCCC(C)(COC(N)=O)COC(N)=O [Meprobamate, 2-methyl-2-propyl-1,3-propanediol dicarbamate, reference compound] | 1100 mg/kg | 4.2 |  |  |  |  |  | ED50 (narcosis): 260 mg/kg
3 | CCC(=O)N1c2ccccc2-n2c(SC)nnc2N1C(=O)CC [Example 5, 1-methylthio-4,5-dipropionyl-4,5-dihydro-s-triazolo[3,4-c]benzo-as-triazin] | 1000 mg/kg | 7 | 140 mg/kg | 100 mg/kg | 10 |  |  | 
4 | CC(=O)N1c2ccccc2-n2cnnc2N1C(C)=O [Example 1, 4,5-diacetyl-4,5-dihydro-s-triazolo-[3,4-c]benzo-as-triazine] | 1100 mg/kg | 15 | 75 mg/kg |  |  | 110 mg/kg | 10 | 
5 | CC(=O)Nc1ccc(O)cc1 [Paracetamol, N-(hydroxyphenyl)acetamide, reference compound] |  |  |  |  |  |  |  | ED50 (acetic acid writhing; po): 180 mg/kg
6 | CCC(=O)N1c2ccccc2-n2cnnc2N1C(=O)CC [Example 3, 4,5-dipropionyl-4,5-dihydro-s-triazolo[3,4-c]benzo-as-triazine] | 2000 mg/kg | 25 | 80 mg/kg | 200 mg/kg | 10 |  |  | 
7 | CCC(=O)N1Nc2nncn2-c2ccccc21 [Example 4, 5-propionyl-4,5-dihydro-s-triazolo[3,4-c]benzo-as-triazine] | 1750 mg/kg | 13 | 140 mg/kg | 175 mg/kg | 10 | 22 mg/kg | 79.55 | 
8 | CC(=O)Oc1ccccc1C(=O)O [Acetylsalicylic acid, reference compound] | 1500 mg/kg |  |  |  |  |  | 8.33 | ED30 ([1]; 3 h): 180 mg/kg
9 | CCCCC1C(=O)N(c2ccccc2)N(c2ccccc2)C1=O [Phenylbutazone, 4-butyl-1,2-diphenyl-3,5-pyrazolidinedione, reference compound] |  |  |  |  |  | 90 mg/kg |  | 
